Data reported in patent US20220249463A1, “METHODS OF ALTERING CARDIAC REMODELING USING COMPOUNDS THAT PROMOTE GLUCOSE OXIDATION” (IMBRIA PHARMACEUTICALS, INC., priority 2019, published 2022).

Tested on: TAC mice
Assay: TAC mice: left ventricular pressure with Mikro-tip catheter
Assay type: in vivo
Details: end of 6-week treatment

COc1ccc(CN2CCN(CCOC(=O)c3cccnc3)CC2)c(OC)c1OC [CV-8972, 2-(4-(2,3,4-trimethoxybenzyl)piperazin-1-yl)ethyl nicotinate]
+dp/dtm: 4541±395 mm Hg/sec | -dp/dtm: −4126±339 mm Hg/sec | left ventricular developed pressure (LVDP) (TMZ 6, NA 2.4, CV-8814 7.5, CV-8972 10 mg/kg/day): 116±9 mm Hg
